Measured values taken from US6437138B1, “3-pyridyloxymethyl heterocyclic ether compounds useful in controlling chemical synaptic transmission” (priority 1996, dated 2002).

| SMILES | melting point |
| --- | --- |
| Cl.Cl.Clc1ccc(-c2cncc(OC[C@H]3CCCN3)c2)cc1 [Example 139, 5-(4-Chlorophenyl)-3-(2-(R)-pyrrolidinylmethoxy)pyridine Dihydrochloride] | 183 to 185 °C |
| CCCCCCC#Cc1cc(OC[C@@H]2CCCN2)cnc1Cl.Cl.Cl [Example 140, 6-Chloro-5-(1-octynyl)-3-(2-(S)-pyrrolidinylmethoxy)pyridine Dihydrochloride] | 133 to 135 °C |
| CN1CCC[C@@H]1COc1cncc(-c2ccc(Cl)cc2)c1.Cl.Cl [Example 141, 5-(4-Chlorophenyl)-3-(1-methyl-2-(R)-pyrrolidinylmethoxy)pyridine Dihydrochloride] | 223 to 225 °C |
| CCCCCCC#Cc1cncc(OC[C@H]2CCCN2C)c1.Cl.Cl [Example 145, 3-(1-Methyl-2-(R)-pyrrolidinylmethoxy)-5-(1-octynyl)pyridine Dihydrochloride] | 102 to 105 °C |
| CCCCCCC#Cc1cc(OC[C@@H]2CCCN2C)cnc1Cl.Cl.Cl [Example 146, 6-Chloro-3-(1-methyl-2-(S)-pyrrolidinylmethoxy)-5-(1-octynyl)pyridine Dihydrochloride] | 223 to 225 °C |
| CN1CCC[C@H]1COc1cnc(Cl)c(-c2cccnc2)c1.Cl.Cl [Example 147, 6-Chloro-3-(1-methyl-2-(S)-pyrrolidinylmethoxy)-5-(3-pyridyl)pyridine Dihydrochloride] | 108 to 110 °C |
| CN1CCC[C@H]1COc1cnc(Cl)c(C=CC=CC(C)(C)C)c1.Cl.Cl [Example 149, 6-Chloro-5-(5,5-dimethyl-1,3-hexadienyl)-3-(1-methyl-2-(S)-pyrrolidinylmethoxy)pyridine Dihydrochloride] | 220 °C |
| Cl.Cl.Clc1ccc(-c2cc(OC[C@@H]3CCCN3)cnc2Cl)cc1 [Example 150, 6-Chloro-5-(4-chlorophenyl)-3-(2-(S)-pyrrolidinylmethoxy)pyridine Dihydrochloride] | 86 to 89 °C |
| CN1CCC[C@H]1COc1cnc(Cl)c(-c2ccc(Cl)cc2)c1.Cl.Cl [Example 151, 6-Chloro-5-(4-chlorophenyl)-3-(1-methyl-2-(S)-pyrrolidinylmethoxy)pyridine Dihydrochloride] | 183 to 185 °C |
| CN1CCC[C@H]1COc1cnc(Cl)c(-c2cccs2)c1.Cl.Cl [Example 153, 6-Chloro-3-(1-methyl-2-(S)-pyrrolidinylmethoxy)-5-(2-thienyl)pyridine Dihydrochloride] | 160 to 163 °C |
| Cl.Nc1cccc(-c2cncc(OC[C@@H]3CCCN3)c2)c1 [Example 158, 5-(3-Aminophenyl)-3-(2-(S)-pyrrolidinylmethoxy)pyridine Hydrochlorid] | 68 to 70 °C |
| CC(C)(C)C=CC=Cc1cncc(OC[C@@H]2CCCN2)c1.Cl.Cl [Example 160, 5-(5,5-Dimethyl-1,3-hexadienyl)3-(2-(S)-pyrrolidinylmethoxy)pyridine Dihydrochloride] | 92 to 94 °C |
| C=Cc1cncc(OC[C@@H]2CCN2)c1.Cl.Cl [Example 162, 3-(2-(S)-Azetidinylmethoxy)-5-ethenylpyridine Dihydrochloride] | 88 to 90 °C |
| C=Cc1cncc(OC[C@@H]2CCCN2)c1.Cl.Cl [Example 164, 5-Ethenyl-3-(2-(S)-pyrrolidinylmethoxy)pyridine Dihydrochloride] | 97 °C (dec.) |
| C=Cc1cc(OC[C@H]2CCCN2)cnc1Cl.Cl [Example 167, 6-Chloro-5-ethenyl-3-(2-(R)-pyrrolidinylmethoxy)pyridine Hydrochloride] | 182 to 184 °C |
| C=Cc1cc(OC[C@H]2CCCN2C)cnc1Cl.Cl [Example 168, 6-Chloro-5-ethenyl-3-(1-methyl-2-(R)-pyrrolidinylmethoxy)pyridine Hydrochloride] | 173 to 175 °C |
| Cl.Clc1ncc(OC[C@@H]2CCCN2)cc1-c1cncnc1 [Example 169, 6-Chloro-5-(5-pyrimidinyl)-3-(2-(S)-pyrrolidinylmethoxy)pyridine Hydrochloride] | 230 °C (dec.) |
